# According to patent US20250129033A1, “METAP2 INHIBITORS AND USES THEREOF” (Yissum Research Development Company of the Hebrew …, priority 2022, published 2025):
# Columns and labels:
# [1] = target: T1, recombinant human methionine aminopeptidase 2 (Homo sapiens, UniProt P50579); experiment: Enzymatic activity assay on recombinant human MetAp2 (L-Met-AMC); type: biochemical; conditions: 2.5 μM, over the course of 1 h, vs untreated control
# T1 construct: purchased bio-techne 3795-ZN
# Experimental: The enzymatic assay was performed using 5 μg protein per sample as described previously. To test the inhibitory effect of AD-3281, at the same conditions, AD-3281 was also added to 0.33 μg recombinant human methionine aminopeptidase 2 obtained from bio-techne (USA, 3795-ZN), samples were incubated with the inhibitor for 15 min at RT before adding the substrate. The reaction was started by adding 250 μM L-Met-AMC as a substrate. An increase of fluorescence, due to substrate degradation during the enzymatic assay, was measured every 20 seconds for 1 h and 30 min at 37° C. using a plate reader (Wallac 1420 VICTOR plate reader, Perkin-Elmer Life Sciences, USA). The assay was carried out on a 96-well plate on ice and it was performed in an assay buffer (pH 7.5) containing 50 mM HEPES, 0.1 mM CoCl2, 100 mM NaCl and 1 mg/mL PEG 6000, in a final volume of 100 μL.
# A375 and MDA-MB-231 were sub-cultivated using trypsin, then centrifuged and counted. […] The protein content of the supernatant was determined according to the Bradford protein assay using BSA as the standard. […] An increase of fluorescence, due to substrate degradation during the enzymatic assay, was measured every 20 seconds for 1 h and 30 min at 37° C. using a plate reader (Wallac 1420 VICTOR plate reader, Perkin-Elmer Life Sciences, USA). […]
# [2] = system: A375 cells; experiment: A375 proliferation assay (MTT); type: cell-based, human; conditions: 1-100 μM, 72 h, dose-dependent
# Experimental: (§1) Human Umbilical Vein Endothelial Cells (HUVECs) or human melanoma cell line (A375) were used to validate the ability of the compound to suppress endothelial cell proliferation. Each 1500 A375 cells/well or 2000 HUVEC cells/well were seeded in a 96 wells plate and allowed to adhere to the plate for few hours. Compounds were then added to the cells at concentration range of 0.05-10 μM (<0.1% DMSO). Cells were then incubated for additional 72 hours and MTT was done (2 to 3 h at 37° C.). The dye was solubilized with DMSO and the absorbance was determined at 570 nm.
# (§2) A375 were seeded (2000 cells/well) exposed to TNP-470 and to arrange concentrations of AD-3281 (1-100 μM) cells were incubated for 72 h at 37° C., After incubation, MTT (Sigma Aldrich, St. Louis City, MO, USA) was added (0.5 mg/mL) into each well for viability detection and incubated at 37° C. and 5% CO2 for 40 minutes. The absorbance was measured at 540 nm using a plate reader (Wallac 1420 VICTOR plate reader, Perkin-Elmer Life Sciences, USA). The proliferation of HUVECs was measured under the same conditions. HUVECs were seeded (3000 cells/well) in 96-well plates […]
# [3] = target: MetAP2 (Homo sapiens, UniProt P50579); experiment: MetAp2 enzymatic assay, L-Met-AMC substrate (Experimental Set-Up 1); type: biochemical
# Experimental: Quantitative MetAP2 activity assay by N-terminal cleavage of substrate 7-amino-4-methyl-courmarin was performed as follows: The activity of MetAP2 was measured using fluorescent peptide substrate L-Met-AMC (Santa Cruz Biotechnology, Inc, sc-207807) as described by Garrabrant et al. (Angiogenesis 7: 91-96, 2004). Briefly, the reaction (100 μl final) was initiated by adding 0.5 μg of MetAP2 or 5 μg HUVEC homogenate to reaction buffer containing 50 mM HEPES (pH 7.4), 100 mM NaCl, 0.1 mM CoCl2, 1 mg/ml PEG6000, and 250 μM L-Met-AMC substrate. The assay was prepared in black flat-bottomed 96-well microtiter plates and fluorescence was measured every 20 s over a period of 60 min at 25° C. using a microplate fluorometer (Bioteck, SynergyHT), with excitation and emission wavelengths set at 360 and 440 nm respectively. As a control the inhibition of the enzyme was obtained by incubating it with TNP-470 for 15 min before the addition of the substrate.
# The inhibitory effect of the compounds were tested in MetAp2 enzymatic assay.
# [4] = system: HUVECs; experiment: HUVEC proliferation assay (MTT); type: cell-based, human; conditions: for reduction in HUVECs proliferation: 72 h, MTT
# Experimental: as §1
# A375 were seeded (2000 cells/well) exposed to TNP-470 and to arrange concentrations of AD-3281 (1-100 μM) cells were incubated for 72 h at 37° C., After incubation, MTT (Sigma Aldrich, St. Louis City, MO, USA) was added (0.5 mg/mL) into each well for viability detection and incubated at 37° C. and 5% CO2 for 40 minutes. The absorbance was measured at 540 nm using a plate reader (Wallac 1420 VICTOR plate reader, Perkin-Elmer Life Sciences, USA). The proliferation of HUVECs was measured under the same conditions. HUVECs were seeded (3000 cells/well) in 96-well plates
# To further verify the inhibition activity of encapsulated AD-3281 in PLGA nanoparticles HUVECS and A375 were exposed to different concentrations of nanoparticles equivalent to 50-1000 nM free AD-3281 (0.2-4.16 mg/ml nanoparticles) empty nanoparticles were added as a control. The effect of AD-3281 on HUVECs growth was evaluated after 5 days.
# as §2, with “after” for “After”, “plates.” for “plates”
# T1 sequence (P50579 whole entry): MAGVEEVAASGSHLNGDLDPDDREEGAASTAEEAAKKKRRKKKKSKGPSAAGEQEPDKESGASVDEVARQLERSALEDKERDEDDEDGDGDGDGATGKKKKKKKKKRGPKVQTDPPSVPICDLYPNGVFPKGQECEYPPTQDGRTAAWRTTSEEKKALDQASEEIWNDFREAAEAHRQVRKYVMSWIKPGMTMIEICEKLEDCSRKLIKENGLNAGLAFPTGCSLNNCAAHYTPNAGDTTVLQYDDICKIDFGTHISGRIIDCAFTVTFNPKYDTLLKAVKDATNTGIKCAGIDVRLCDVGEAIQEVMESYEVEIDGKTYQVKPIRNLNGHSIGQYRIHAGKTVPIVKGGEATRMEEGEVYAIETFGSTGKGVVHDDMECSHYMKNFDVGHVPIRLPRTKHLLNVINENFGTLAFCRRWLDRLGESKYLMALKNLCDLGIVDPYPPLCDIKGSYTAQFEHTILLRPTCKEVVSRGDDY
# Chain of MetAP2 (P50579 whole entry): as above
smiles,measurement,setting,value
"COC1C(OC(=O)CC23CC4CC(CC(C4)C2)C3)CCC2(CO2)C1C1(C)OC1CC=C(C)C (stereo not drawn) [AD-3281, Fumagillol-1-adamantylacetate]",inhibition of rhMetAp2 enzymatic activity,[1],95%
same,reduction in A375 cancer cell proliferation,[2],37-63%
same,inhibitory effect in MetAp2 enzymatic assay (ranking among compounds),[3],most active
same,suppression of endothelial cell proliferation (ranking among compounds),[4],most active
same,reduction in HUVECs proliferation,[4]; 1 μM,40%
same,reduction in HUVECs proliferation,[4]; 10 μM,50%
